Data from ChEMBL document CHEMBL4229347, “Design, synthesis, and biological evaluation of novel ubiquitin-activating enzyme inhibitors” (2018).
The source made the active and inactive calls. The rule behind the calls is not given here.

What was measured:
[1] = molecular target: Ubiquitin-conjugating enzyme E2 D2 (Homo sapiens) (UniProt P62837); test: Inhibition of E2 (unknown origin) assessed as reduction in biotin-labelled ubiquitin-E2 conjugate formation at 10 to 1000 uM pretreated for 30 mins followed by biotin-labelled ubiquitin addition and measured after 60 mins in presence of E1 by Western blot analysis
[2] = molecular target: T1, Ubiquitin-like modifier-activating enzyme 1 (Homo sapiens) (UniProt P22314); test: Inhibition of recombinant human E1 expressed in Escherichia coli BL21(DE3) assessed as reduction in biotin-labelled ubiquitin-E1 conjugate formation up to 1000 uM pretreated for 30 mins followed by biotin-labelled ubiquitin addition and measured after 30 mins by Western blot analysis
T1 sequence (whole entry): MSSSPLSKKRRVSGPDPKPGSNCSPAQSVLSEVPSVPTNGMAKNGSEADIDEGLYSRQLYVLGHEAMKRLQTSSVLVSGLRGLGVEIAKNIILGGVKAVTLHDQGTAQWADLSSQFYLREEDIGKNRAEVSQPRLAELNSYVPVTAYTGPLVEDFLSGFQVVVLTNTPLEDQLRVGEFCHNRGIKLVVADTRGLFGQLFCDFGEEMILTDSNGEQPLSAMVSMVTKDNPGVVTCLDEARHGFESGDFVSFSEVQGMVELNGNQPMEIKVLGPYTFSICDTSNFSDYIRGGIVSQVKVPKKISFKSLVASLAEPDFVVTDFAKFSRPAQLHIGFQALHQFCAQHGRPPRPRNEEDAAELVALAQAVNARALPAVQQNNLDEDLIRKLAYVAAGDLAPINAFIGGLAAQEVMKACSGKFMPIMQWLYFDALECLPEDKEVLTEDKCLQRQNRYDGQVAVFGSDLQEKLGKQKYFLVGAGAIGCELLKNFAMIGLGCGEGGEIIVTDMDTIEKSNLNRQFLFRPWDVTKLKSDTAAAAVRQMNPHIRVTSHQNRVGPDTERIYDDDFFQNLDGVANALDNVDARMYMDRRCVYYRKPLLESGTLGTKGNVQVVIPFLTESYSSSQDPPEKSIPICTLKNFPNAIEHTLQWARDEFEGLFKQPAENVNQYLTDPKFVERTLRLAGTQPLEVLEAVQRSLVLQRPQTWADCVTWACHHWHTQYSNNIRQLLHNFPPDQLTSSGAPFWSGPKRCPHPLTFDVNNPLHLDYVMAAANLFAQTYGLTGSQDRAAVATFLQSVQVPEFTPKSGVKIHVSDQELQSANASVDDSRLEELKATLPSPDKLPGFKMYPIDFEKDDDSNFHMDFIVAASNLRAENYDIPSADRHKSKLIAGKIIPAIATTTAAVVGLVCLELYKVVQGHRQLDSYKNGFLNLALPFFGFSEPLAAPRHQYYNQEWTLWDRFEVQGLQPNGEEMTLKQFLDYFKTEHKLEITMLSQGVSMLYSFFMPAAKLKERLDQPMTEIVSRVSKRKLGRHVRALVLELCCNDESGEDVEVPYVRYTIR

[3] = molecular target: T1, Ubiquitin-like modifier-activating enzyme 1 (Homo sapiens); test: (§1) Reversible inhibition of recombinant human E1 expressed in Escherichia coli BL21(DE3) assessed as reduction in biotin-labelled ubiquitin-E1 conjugate formation at 100 uM pretreated for 60 mins followed by 2.5 uM biotin-labelled ubiquitin addition for 30 mins and subsequent 5 uM biotin-labelled ubiquitin addition measured after 30 mins by Western blot analysis
[4] = molecular target: Ubiquitin-conjugating enzyme E2 D2 (Homo sapiens) (UniProt P62837); test: Inhibition of E2 (unknown origin) assessed as reduction in biotin-labelled ubiquitin-E2 conjugate formation pretreated for 30 mins followed by biotin-labelled ubiquitin addition and measured after 60 mins in presence of E1 by Western blot analysis
[5] = molecular target: T1, Ubiquitin-like modifier-activating enzyme 1 (Homo sapiens); test: Inhibition of recombinant human E1 expressed in Escherichia coli BL21(DE3) assessed as reduction in biotin-labelled ubiquitin-E1 conjugate formation pretreated for 30 mins followed by biotin-labelled ubiquitin addition and measured after 30 mins by Western blot analysis
[6] = molecular target: T1, Ubiquitin-like modifier-activating enzyme 1 (Homo sapiens); test: Inhibition of E1 in human MCF7 cells assessed as increase in p53 levels at 100 uM measured after 24 hrs by Western blot analysis; format: cell-based
[7] = molecular target: T1, Ubiquitin-like modifier-activating enzyme 1 (Homo sapiens); test: as §1, with “addition” for “addition measured after 30 mins”
MCF7 = test: Growth inhibition of human MCF7 cells after 72 hrs by alamar blue assay; format: functional; conditions: MCF7, 72 h

Ubiquitin-conjugating enzyme E2 D2 (Homo sapiens), sequence (P62837 whole entry, looked up): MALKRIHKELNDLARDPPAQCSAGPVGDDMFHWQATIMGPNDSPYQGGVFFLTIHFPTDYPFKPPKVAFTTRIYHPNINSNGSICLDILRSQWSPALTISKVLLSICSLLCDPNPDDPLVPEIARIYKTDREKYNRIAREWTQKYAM

inhibition [1] | inhibition [2] | inhibition [3] | inhibition [4] | inhibition [5] | inhibition [6] | inhibition [7] | GI50 (MCF7) | Compound
inactive | Active | – | – | – | – | – | – | COC(=O)CNC(=O)CCCc1ccc(OCCCNC(C)=O)c(CCCC(C)C)c1
– | – | Active | Dose-dependent effect | Dose-dependent effect | Active | Active | 63.4 µM | COC(=O)CNC(=O)CCCc1ccc(OCCCNC(=O)c2ccccc2)c(CCCC(C)C)c1
inactive | inactive | – | – | – | – | – | – | COC(=O)CNC(=O)CCCc1ccc(OCCCN)c(CCCC(C)C)c1
